The data set in a line: in vitro. Conditions: human, hela cells, % viability.

The source of these data is paper PMC12040169 (PLOS Biology, 2025).

A word on the viability: it is a read-out of living cells in per cent, often relative to untreated cells. For the molecule `COc1cccc(CNc2nccnc2-c2cccs2)c1OC` [CBK036784], the viability at 28.5 h, 10 µM is 95.7%. Consider `COc1ccc(-c2nc(NC(=O)c3ccccn3)cnc2-c2cccc(C(F)(F)F)c2)cc1` [CBK036785], for which the viability at 28.5 h, 10 µM was 110%. Take `CN1CCCC(C(=O)Nc2cnc(-c3cccc(C(F)(F)F)c3)c(-c3cccnc3)n2)C1` (stereo not drawn) [CBK036787]: the viability at 28.5 h, 10 µM came out at 87.2%.

`COc1ccccc1-c1nccnc1NCc1ccc(C(F)(F)F)cc1` [CBK036788]: the viability at 28.5 h, 10 µM was 109%.

Take `c1ccc(CCNc2nccnc2-c2ccoc2)nc1` [CBK036790]: the viability at 28.5 h, 10 µM amounted to 86.1%.

Take `O=C(Nc1cnc(-c2ccc(F)c(Cl)c2)c(-c2cccnc2)n1)c1ccc(N2CCCC2=O)cc1` [CBK036794]: the viability at 28.5 h, 10 µM was determined as 107%.

Turning to `Cc1cccc(CNc2nccnc2-c2cccs2)c1` [CBK036808], the viability at 28.5 h, 10 µM is 104%. In the case of `CC(=O)NCC(=O)Nc1cnc(-c2cccc(C(F)(F)F)c2)c(-c2cccnc2)n1` [CBK036809] it was 103%; in that of `O=C(c1ccc(-c2nccnc2N2CCN(CCO)CC2)cc1)N1CCOCC1` [CBK036812], 92.1%. In the case of `COc1ccc(-c2nc(NC(=O)C3CCC(OC)CC3)cnc2-c2cccc(C)c2)cn1` (stereo not drawn) [CBK036813] it was 109%. On to `COc1ccc(NC(=O)c2ccc(-c3ccc(Nc4ccc5c(c4)OCCO5)nc3)cc2)cc1` [CBK036815], for which the viability at 28.5 h, 10 µM amounted to 88.7%. Regarding `CC(=O)c1ccc(-c2nc(NC(=O)c3cccc([N+](=O)[O-])c3)cnc2-c2ccc(F)c(Cl)c2)s1` [CBK036816], the viability at 28.5 h, 10 µM came to 97.2%. Regarding `COc1ncc(-c2nccnc2NCc2cccnc2)c(OC)n1` [CBK036817], the viability at 28.5 h, 10 µM was 101%. In the case of `COc1ccc(Nc2cccc(-c3cnc(OC)nc3OC)n2)cc1` [CBK036825], the viability at 28.5 h, 10 µM stood at 89.6%. In the case of `CCCCCOc1ccc(Nc2ccc(-c3cc4ccccc4o3)cn2)cc1` [CBK036828] it was 93.6%; in that of `CC(=O)Nc1cccc(-c2ccc(Nc3cccc(N(C)C)c3)nc2)c1` [CBK036829], 97.9%. For `COc1cccc(CCC(=O)Nc2cnc(-c3cccc(C(F)(F)F)c3)c(-c3cccnc3)n2)c1` [CBK036835], the viability at 28.5 h, 10 µM came to 90%. Regarding `CS(=O)(=O)c1ccc(CNc2nccnc2-c2ccccc2F)cc1` [CBK036836], the viability at 28.5 h, 10 µM worked out at 96.4%. With `OCc1cccc(-c2nccnc2NCC(O)COc2ccccc2)c1` (stereo not drawn) [CBK036842], the viability at 28.5 h, 10 µM was found to be 94.3%.

`c1cc(-c2ccc(Nc3ccc(N4CCOCC4)cc3)nc2)cs1` [CBK036844]: the viability at 28.5 h, 10 µM was determined as 97.6%.

`C=CCNc1nccnc1-c1ccncc1` [CBK036845]: the viability at 28.5 h, 10 µM is 90.7%.

For `COc1cc(-c2nccnc2N2CCN(c3ccncc3)CC2)cc(OC)c1OC` [CBK036847], the viability at 28.5 h, 10 µM was determined as 92%. Regarding `OCCN1CCN(c2ccc(/C=C/c3ccccc3)cn2)CC1` [CBK036849], the viability at 28.5 h, 10 µM came out at 89.2%. Then `COc1ccc(-c2nc(NC(=O)C3CC3)cnc2-c2cccc(C(F)(F)F)c2)cc1` [CBK036852], with 98%. Turning to `C(=C\c1cccc(N2CCN(CCN3CCCC3)CC2)n1)/c1ccccc1` [CBK036853], the viability at 28.5 h, 10 µM turned out to be 97.8%.

For the molecule `COc1ccc(Nc2ccc(-c3ccsc3)cn2)c(C)c1` [CBK036855], the viability at 28.5 h, 10 µM amounted to 109%. With `CCCCCOc1ccc(Nc2ccc(-c3cccc(Cl)c3Cl)cn2)cc1` [CBK036856], the viability at 28.5 h, 10 µM came to 111%. `CC(=O)Nc1cccc(-c2ccc(N3CCN(CCN(C)C)CC3)nc2)c1` [CBK036857]: the viability at 28.5 h, 10 µM is 104%.

For `OC(CNc1nccnc1-c1ccco1)COc1ccccc1` (stereo not drawn) [CBK036862], the viability at 28.5 h, 10 µM came to 96.7%. Then `O=C(Cc1c[nH]c2ccccc12)Nc1cnc(-c2cccc(OC(F)(F)F)c2)c(-c2cccnc2)n1` [CBK036863], with 108%; and `C=CCNc1nccnc1-c1ccc(CO)cc1` [CBK036870], with 91.4%; and `C=CCNc1nccnc1-c1cc(OC)c(OC)c(OC)c1` [CBK036872], with 102%. Consider `Fc1ccc(-c2cccc(N3CCN(c4ccccn4)CC3)n2)cc1Cl` [CBK036877], for which the viability at 28.5 h, 10 µM stood at 104%. Regarding `O=C(Nc1cnc(-c2cccc(C(F)(F)F)c2)c(-c2cccnc2)n1)c1cc(-c2ccco2)n[nH]1` [CBK036878], the viability at 28.5 h, 10 µM was found to be 104%. In the case of `CN1CCC(C(=O)Nc2cnc(-c3cccc(OC(F)(F)F)c3)c(-c3cccnc3)n2)CC1` [CBK036882] it was 108%; in that of `CN(C)c1cccc(Nc2ccc(-c3ccco3)cn2)c1` [CBK036885], 96.8%; in that of `CCCC/C=C/c1ccc(Nc2ccc(N3CCOCC3)cc2)nc1` [CBK036886], 88.7%. For the molecule `O=C(c1ccc(-c2nccnc2NCCc2c[nH]c3ccccc23)cc1)N1CCOCC1` [CBK036891], the viability at 28.5 h, 10 µM was 95.6%. With `CCCNc1nccnc1-c1ccc(C(=O)N2CCN(C)CC2)cc1` [CBK036892], the viability at 28.5 h, 10 µM was determined as 110%. For `O=C(COc1ccccc1[N+](=O)[O-])Nc1cnc(-c2cccc(C(F)(F)F)c2)c(-c2ccco2)n1` [CBK036899], the viability at 28.5 h, 10 µM is 86.3%. Regarding `CN(C)c1ccc(-c2nccnc2NCc2ccc(S(C)(=O)=O)cc2)cc1` [CBK036902], the viability at 28.5 h, 10 µM was determined as 104%. In the case of `COc1ccc(C(C)C)cc1-c1nccnc1NCc1ccc(S(C)(=O)=O)cc1` [CBK036903] it was 92.5%; in that of `CCOc1cccc(-c2ccc(N(C)CCN(C)C)nc2)c1` [CBK036904], 94.8%; in that of `CN(C)CCN1CCN(c2ccc(-c3ccsc3)cn2)CC1` [CBK036915], 96.2%. `CN1CCN(c2cccc(-c3ccsc3)n2)CC1` [CBK036916]: the viability at 28.5 h, 10 µM came out at 90.2%. Then `Cc1cc(-c2nccnc2NCc2ccccn2)cc(C)c1O` [CBK036921], with 94.2%. Turning to `C=CCNc1nccnc1-c1cnc(OC)nc1OC` [CBK036922], the viability at 28.5 h, 10 µM was 91.7%. Regarding `COc1ncc(-c2nccnc2N[C@@H]2CCN(Cc3ccccc3)C2)c(OC)n1` [CBK036926], the viability at 28.5 h, 10 µM is 101%. Regarding `COc1ccc(C(C)C)cc1-c1nccnc1NCC1COC(C)(C)O1` (stereo not drawn) [CBK036930], the viability at 28.5 h, 10 µM amounted to 101%. For `O=C(c1ccc(-c2nccnc2NCc2ccc(C(F)(F)F)cc2)cc1)N1CCOCC1` [CBK036931], the viability at 28.5 h, 10 µM worked out at 100%. `COc1ncc(-c2ccc(NCC(C)C)nc2)c(OC)n1` [CBK036934]: the viability at 28.5 h, 10 µM came to 116%.

Consider `COc1cc(-c2nccnc2NCc2ccccn2)cc(OC)c1OC` [CBK036936], for which the viability at 28.5 h, 10 µM was determined as 96.8%. In the case of `COCCC(=O)Nc1cnc(-c2ccc(F)c(Cl)c2)c(-c2cccnc2)n1` [CBK036938], the viability at 28.5 h, 10 µM is 95.2%.

`OCCN1CCN(c2ccc(-c3cc(C(F)(F)F)cc(C(F)(F)F)c3)cn2)CC1` [CBK036941]: the viability at 28.5 h, 10 µM turned out to be 99%. With `COc1ccc(Nc2cccc(-c3ccc(CCC(=O)O)cc3)n2)cc1` [CBK036943], the viability at 28.5 h, 10 µM was found to be 106%. On to `CN1CCN(c2ccc(-c3ccc(Cl)cc3)cn2)CC1` [CBK036945], for which the viability at 28.5 h, 10 µM was found to be 95.2%.

With `CCCCCOc1ccc(Nc2ccc(-c3cccnc3)cn2)cc1` [CBK036948], the viability at 28.5 h, 10 µM was 109%.
